Laboratory results: publication PMC3179935, “Gallus gallus NEU3 sialidase as model to study protein evolution mechanism based on rapid evolving loops” (BMC Biochemistry, 2011)

Target: T1, Mm NEU3 (Mm NEU3-HA) (Mus musculus, UniProt Q9JMH7)
T1 construct: HA tag, pcDNAI, transiently expressed in COS7, total cell lysate
T1 sequence (Q9JMH7 1-418): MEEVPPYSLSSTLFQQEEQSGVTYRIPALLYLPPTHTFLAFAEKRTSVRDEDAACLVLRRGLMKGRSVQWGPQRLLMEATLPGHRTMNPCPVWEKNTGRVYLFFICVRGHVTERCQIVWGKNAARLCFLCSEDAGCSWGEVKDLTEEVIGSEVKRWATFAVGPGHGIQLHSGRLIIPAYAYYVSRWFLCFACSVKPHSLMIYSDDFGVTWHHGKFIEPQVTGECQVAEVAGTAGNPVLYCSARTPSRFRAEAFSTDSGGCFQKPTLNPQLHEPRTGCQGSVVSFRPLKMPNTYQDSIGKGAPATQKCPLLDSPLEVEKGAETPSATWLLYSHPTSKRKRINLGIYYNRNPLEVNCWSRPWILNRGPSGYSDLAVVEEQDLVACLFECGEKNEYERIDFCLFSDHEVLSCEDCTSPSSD
Assay: sialidase activity in transfected COS7 lysate
Format: biochemical
Settings: positive control; pH range 2.5-5.5; 37 °C

## CC(=O)N[C@H]1[C@H]([C@H](O)[C@H](O)CO)O[C@@](Oc2ccc3c(C)cc(=O)oc3c2)(C(=O)O)C[C@@H]1O [4-MU-NeuAc]
  sialidase activity in transfected COS7 lysate: pcDNAI-Mm NEU3-HA transfected cells were used as control
